Seven compounds from US20260226493A1, “HERBICIDE RESISTANT PLANTS” (SYNGENTA CROP PROTECTION AG, priority 2023, published 2026) can be followed below.

Common to all, as to assay type: biochemical
Assay [1] deals with T1, Arabidopsis thaliana BIO3-BIO1 (BioDA) mutants (Arabidopsis thaliana, UniProt B0F481, Y511C).
T1 construct: with the predicted N-terminal mitochondrial transit peptide removed; 6xHis-tag (N); thrombin cleavage site (N); made in house; host or cells: E. coli BL21 (DE3) bioA
Description: BIO3-BIO1 mutant enzyme activity in the presence of herbicide, percentage inhibition (fluorometric DAPA assay). The note with it: read-out: percentage inhibition. From the text:
(§1) A pet-24 plasmid containing a DNA sequence encoding each identified variant mutant of BIO3-BIO1 derived from Arabidopsis thaliana from example 5 above, as shown in Table 13 below and as shown in full in SEQ ID NOs: 15 to 155, codon-optimised for expression in E. coli, with an N-terminal 6×His-tag and thrombin cleavage site and under control of a T7 promoter, and was synthesised by Twist Bioscience, in a similar manner to SEQ ID NO:311. These plasmids were then expressed in E. coli BL21 (DE3) bioA with 50 μg/mL kanamycin and 25 μg/mL chloramphenicol selection. Overnight cultures grown at 37° C. were used to inoculate 8×500 mL AIM in shake flasks at a ratio of 1:100. Cultures were grown at 37° C., 200 rpm for 3.5 hours and then overnight at 20° C. Cells were harvested by centrifugation for 30 minutes at 10 000 g. Cells were stored at −80° C. until extraction. 30 g of cell pellet from was thawed in 120 mL of IMAC buffer A (20 mM HEPES pH7.5, 25 mM imidazole, 500 mM sodium chloride, 0.15 mM pyridoxal phosphate, 0.5 mM TCEP, 1× complete Protease Inhibitor Tablet (Roche)). The resuspension was passed through a cell disrupter at 18 000 PSI and centrifuged at 50 000 g for 25 minutes at 4° C. The His-tagged BIO3-BIO1 protein was purified from the extract supernatant on an AKTA avant chromatography system (Cytiva) using a HisTrap FF column and eluted in IMAC buffer B ((20 mM HEPES pH7.5, 500 mM imidazole, 500 mM sodium chloride, 0.15 mM pyridoxal phosphate, 0.5 mM TCEP) followed by SEC using a HiLoad 26/60 Superdex200 column in SEC buffer (25 mM HEPES pH7.5, 150 mM sodium chloride, 0.15 mM pyridoxal phosphate, 0.5 mM TCEP). Protein concentration was measured and calculated using the absorbance at 280 nm. Extracts were diluted 1 in 4 and 10 uL was analysed by SDS PAGE.
(§2) To measure BIO3-BIO1 mutant enzyme activity in the presence of herbicide, herbicides were incubated with 20 μL of enzyme mix (100 mM EPPS pH 8.6, 0.1 mM pyridoxal phosphate, 0.1 mg/mL BSA, 50 nM BIO3-BIO1 enzyme) for 10 minutes at 20° C. in a well of a 96-well half-area black plate, followed by the addition of 20 μL of substrate mix (final concentration of 100 mM EPPS pH 8.6, 0.1 mM pyridoxal phosphate, 0.1 mg/mL BSA, 100 μM spermidine, 20 μM KAPA, 100 mM NaCO3) and further incubation for 75 minutes at 20° C. The reaction was terminated by the addition of 50 μL of derivatisation mix (final concentration of 250 mM borate NaOH pH 9.4, 3.6 mM o-phthalaldehyde, 7 mM β-mercaptoethanol, 17% (v/v) ethanol, 3.6% (v/v) methanol). The fluorescent product produced by the reaction of DAPA with o-phthalaldehyde and 7 mM β-mercaptoethanol was measured at 470 nm after excitation at 410 nm. The percentage inhibition was calculated as the activity in the presence of one of three concentrations of each herbicide compound A to M (note that the compounds labelled as A to M are identified hereinabove in the relevant section of the description) as a percentage of the activity in DMSO (Table 12 and 13). The percentage activity versus WT was also calculated and is shown in Table 13 and 14 (NT indicates mutation not tested in table 13, note that these mutations are tested at different compound concentrations for compounds L, M and C, and the results are shown in table 14).

The target in assay [2] is T2, Arabidopsis thaliana BIO3-BIO1 (BioDA) mutants (Arabidopsis thaliana, UniProt B0F481, F348E).
T2 construct: with the predicted N-terminal mitochondrial transit peptide removed; 6xHis-tag (N); thrombin cleavage site (N); made in house; host or cells: E. coli BL21 (DE3) bioA
The assay is described as above. As to conditions: read-out: percentage inhibition.
Text: as §1, §2

Assay [3] concerns the target T3, Arabidopsis thaliana BIO3-BIO1 (BioDA) mutants (Arabidopsis thaliana, UniProt B0F481, P510V).
T3 construct: with the predicted N-terminal mitochondrial transit peptide removed; 6xHis-tag (N); thrombin cleavage site (N); made in house; host or cells: E. coli BL21 (DE3) bioA
Described as above. The note with it: read-out: percentage inhibition.
Text: as §1, §2

In assay [4] the target is T4, Arabidopsis thaliana BIO3-BIO1 (BioDA) mutants (Arabidopsis thaliana, UniProt B0F481, F348V).
T4 construct: with the predicted N-terminal mitochondrial transit peptide removed; 6xHis-tag (N); thrombin cleavage site (N); made in house; host or cells: E. coli BL21 (DE3) bioA
Described as above. As to conditions: read-out: percentage inhibition.
Text: as §1, §2

The target of a further assay is T5, Arabidopsis BioDAΔMTP (Arabidopsis thaliana, UniProt B0F481).
T5 construct: with the predicted N-terminal mitochondrial transit peptide removed; 6xHis-tag (N); thrombin cleavage site (N); made in house; host or cells: E. coli BL21 (DE3) bioA
T5 sequence (B0F481 with tags, fused parts or gaps): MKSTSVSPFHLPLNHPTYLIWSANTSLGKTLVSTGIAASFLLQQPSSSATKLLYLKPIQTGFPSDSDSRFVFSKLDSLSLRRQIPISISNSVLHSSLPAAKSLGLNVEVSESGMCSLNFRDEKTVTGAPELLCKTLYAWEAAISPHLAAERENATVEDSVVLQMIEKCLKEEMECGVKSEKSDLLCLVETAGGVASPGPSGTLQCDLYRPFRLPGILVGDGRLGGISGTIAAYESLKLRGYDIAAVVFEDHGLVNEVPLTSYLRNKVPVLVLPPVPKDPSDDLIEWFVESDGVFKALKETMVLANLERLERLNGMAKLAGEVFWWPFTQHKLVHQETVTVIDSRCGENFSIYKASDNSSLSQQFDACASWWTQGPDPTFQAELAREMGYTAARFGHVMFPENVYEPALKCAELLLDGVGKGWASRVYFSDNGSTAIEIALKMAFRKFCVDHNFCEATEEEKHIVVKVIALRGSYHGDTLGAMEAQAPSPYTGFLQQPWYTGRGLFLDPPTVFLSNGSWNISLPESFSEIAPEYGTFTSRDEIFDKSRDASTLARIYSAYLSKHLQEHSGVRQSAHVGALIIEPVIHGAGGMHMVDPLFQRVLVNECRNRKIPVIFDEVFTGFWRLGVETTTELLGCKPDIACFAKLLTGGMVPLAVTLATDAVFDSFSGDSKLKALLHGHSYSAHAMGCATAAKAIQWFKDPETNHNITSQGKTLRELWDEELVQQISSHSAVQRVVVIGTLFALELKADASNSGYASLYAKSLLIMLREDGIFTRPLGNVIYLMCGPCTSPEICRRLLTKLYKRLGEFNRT
Description: BioDA enzyme activity with DMSO or herbicide in vitro (wild-type reference enzyme). The note with it: for % Inhibition relative to DMSO treatment: Arabidopsis BioDAΔMTP (Table 26).

[5] abbreviates: 31 μM, Arabidopsis (SEQ ID NO 294), spermidine in substrate mix, read-out: % Inhibition relative to DMSO treatment.
Setting [6] is: Arabidopsis (SEQ ID NO 294), spermidine in substrate mix, read-out: % Inhibition relative to DMSO treatment.
Where [7] appears, read: 500 μM, Arabidopsis (SEQ ID NO 294), spermidine in substrate mix, read-out: % Inhibition relative to DMSO treatment.

T4 sequence (B0F481 23-833 F348V): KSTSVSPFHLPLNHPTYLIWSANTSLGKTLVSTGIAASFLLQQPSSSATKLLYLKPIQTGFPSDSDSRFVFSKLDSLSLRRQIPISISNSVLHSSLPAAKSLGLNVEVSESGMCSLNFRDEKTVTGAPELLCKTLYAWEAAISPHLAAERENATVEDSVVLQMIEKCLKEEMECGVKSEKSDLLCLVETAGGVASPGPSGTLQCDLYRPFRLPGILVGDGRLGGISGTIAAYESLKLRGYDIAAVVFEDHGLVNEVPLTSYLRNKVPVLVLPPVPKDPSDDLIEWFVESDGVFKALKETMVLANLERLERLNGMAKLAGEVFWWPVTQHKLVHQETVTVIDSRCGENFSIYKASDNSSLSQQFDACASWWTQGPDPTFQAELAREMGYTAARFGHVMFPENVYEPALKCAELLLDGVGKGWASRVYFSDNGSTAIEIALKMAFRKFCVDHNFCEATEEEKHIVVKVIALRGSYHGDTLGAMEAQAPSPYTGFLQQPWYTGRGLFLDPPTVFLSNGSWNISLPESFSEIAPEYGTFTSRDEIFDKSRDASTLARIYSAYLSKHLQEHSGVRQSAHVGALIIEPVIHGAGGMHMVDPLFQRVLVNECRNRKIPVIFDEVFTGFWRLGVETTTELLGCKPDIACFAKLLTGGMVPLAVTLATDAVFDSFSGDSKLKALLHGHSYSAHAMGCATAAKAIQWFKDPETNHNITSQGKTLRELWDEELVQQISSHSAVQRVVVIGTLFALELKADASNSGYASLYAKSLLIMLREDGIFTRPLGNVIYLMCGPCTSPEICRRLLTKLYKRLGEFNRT
T3 sequence (B0F481 23-833 P510V): as the sequence (B0F481 23-833 F348V) above, with V326F, P488V counted along it
T2 sequence (B0F481 23-833 F348E): as the sequence (B0F481 23-833 F348V) above, with V326E counted along it
T1 sequence (B0F481 23-833 Y511C): as the sequence (B0F481 23-833 F348V) above, with V326F, Y489C counted along it

As for `CCOC(=O)c1nn(-c2ccc3c(c2)OC(F)(F)C(F)(F)O3)c2cccc(C(C)=O)c2c1=O` [Compound A, ethyl 5-acetyl-4-oxo-1-(2,2,3,3-tetrafluoro-1,4-benzodioxin-6-yl)cinnoline-3-carboxylate], the inhibition at 1 µM in assay [1] was 0%; in assay [2], 0%; in assay [3], 1%; in assay [4], 4%. For the same compound, the inhibition at 25 µM at Arabidopsis BioDAΔMTP (25 μM, Arabidopsis (SEQ ID NO 294), spermidine in substrate mix, read-out: % Inhibition relative to DMSO treatment) stood at 96%.

Consider `CC(O)C(N)CCCCC(=O)O.Cl` (centres unmarked) [Compound B, [5-carboxy-1-(1-hydroxyethyl)pentyl]ammonium chloride], for which the inhibition at 31 µM at Arabidopsis BioDAΔMTP (setting [5]) is 79%. For the same compound, the inhibition at 200 µM at Arabidopsis BioDAΔMTP (setting [6]) was determined as 96%. In addition, the inhibition at 500 µM at Arabidopsis BioDAΔMTP (setting [7]) turned out to be 96%.

For `CCn1c(C)c(-c2ccc(F)cc2F)c(=O)c(C(=O)O)c1-c1ccc(Cl)c(Cl)c1` [Compound C, 2-(3,4-dichlorophenyl)-5-(2,4-difluorophenyl)-1-ethyl-6-methyl-4-oxo-pyridine-3-carboxylic acid], the inhibition at 0.2 µM in assay [1] worked out at 33%; in assay [2], 19%; in assay [3], 0%; in assay [4], 0%. Further, the inhibition at 1 µM in assay [1] came out at 86%; in assay [2], 57%; in assay [3] it was 21%; in assay [4] it was 0%. The inhibition at 5 µM turned out to be 98% in assay [1], 86% in assay [2], 79% in assay [3] and 1% in assay [4]. The inhibition at 0.5 µM on Arabidopsis BioDAΔMTP (setting [6]) was determined as 53%.

Turning to `CCn1c(C)c(-c2cc(OC(F)(F)F)ccc2Cl)c(=O)c(C(=O)O)c1-c1ccc(Cl)c(Cl)c1` [Compound D, 5-[2-chloro-5-(trifluoromethoxy)phenyl]-2-(3,4-dichlorophenyl)-1-ethyl-6-methyl-4-oxo-pyridine-3-carboxylic acid], the inhibition at 0.5 µM at Arabidopsis BioDAΔMTP (setting [6]) was 95%.

On to `C[C@@H](N)COc1cccc(C(=O)O)n1.Cl.Cl` [Compound E, [(1R)-2-(6-carboxypyridin-1-ium-2-yl)oxy-1-methyl-ethyl]ammonium dichloride], for which, at Arabidopsis BioDAΔMTP (setting [6]), the inhibition at 200 µM stood at 96%.

For `CCn1c(Cn2ccc(C(F)(F)F)n2)cc(=O)c(C(=O)O)c1-c1ccc(Cl)c(Cl)c1` [Compound L, 2-(3,4-dichlorophenyl)-1-ethyl-4-oxo-6-[[3-(trifluoromethyl)pyrazol-1-yl]methyl]pyridine-3-carboxylic acid], the inhibition at 0.01 µM in assay [2] was found to be 0%; in assay [3], 0%; in assay [4], 10%. The inhibition at 0.075 µM in assay [2] came out at 0%; in assay [3], 0%; in assay [4], 15%. The inhibition at 0.5 µM stood at 32% in assay [2], 52% in assay [3], 11% in assay [4] and 83% at Arabidopsis BioDAΔMTP (setting [6]). For the same compound, the inhibition at 31 µM on Arabidopsis BioDAΔMTP (setting [5]) stood at 99%. The “% Inhibition relative to DMSO treatment” value at Arabidopsis BioDAΔMTP (31 μM) is on record as 99%; on Arabidopsis BioDAΔMTP (500 μM), 98%. On Arabidopsis BioDAΔMTP (setting [7]), the inhibition at 500 µM is 98%.

For `CCn1c(-c2ccc(Cl)c(Cl)c2)c(C(=O)O)c(=O)c2cc(F)ccc21` [Compound M, 2-(3,4-dichlorophenyl)-1-ethyl-6-fluoro-4-oxo-quinoline-3-carboxylic acid], the inhibition at 0.2 µM worked out at 16% in assay [1], 27% in assay [2], 0% in assay [3] and 0% in assay [4]. In addition, the inhibition at 1 µM is 67% in assay [1], 25% in assay [2], 0% in assay [3] and 0% in assay [4]. The inhibition at 5 µM came to 92% in assay [1], 66% in assay [2], 62% in assay [3] and 0% in assay [4]. Further, the inhibition at 0.5 µM on Arabidopsis BioDAΔMTP (setting [6]) was 45%.

A word on the inhibition: it is the share of the control response that was lost under treatment.
